Results reported in article PMC5560747, “Computational-experimental approach to drug-target interaction mapping: A case study on kinase inhibitors” (PLoS Computational Biology, 2017).

Legend:
Experiment in all cases: cell-free ADP-Glo Kinase Assay
Assay type in all cases: biochemical
Settings in all cases: read-out: Experimental validation pIC50 (converted)
[1] = target: SRC (Homo sapiens, UniProt P12931)
[2] = target: FYN A (Homo sapiens, UniProt P06241)
Procedure: (§1) The kinase inhibitors were dissolved to 1X Kinase Buffer with 5% DMSO by transferring 200nL of the buffer using ECHO525 Liquid handler (Labcyte). […] The dissolved kinases and 2.5X kinase buffer controls were transferred at 400nL using ECHO525. […] The 2.5X ATP/substrate working stocks were transferred at 400nL using ECHO525.
(§2) For the ADP detection, 1 μl ADP-Glo reagent was dispensed (Thermo Scientific Multidrop Combi nL). […] Next, 2 μl kinase detection reagent was dispensed with Thermo Scientific Multidrop Combi nL.
(§3) The Kinase Selectivity Profiling System kit assays were performed at least in two individual experiments, each having two replicates.
(§4) IC50 values from all the experiments were obtained with GraphPad Prism 7 (GraphPad Software, Inc. California, USA) using inhibitor vs. response—variable slope (four parameters) analysis. […] X-axis scale was set to log10.

[3] = target: T1, AXL (Homo sapiens, UniProt P30530)
T1 sequence (P30530 26-894): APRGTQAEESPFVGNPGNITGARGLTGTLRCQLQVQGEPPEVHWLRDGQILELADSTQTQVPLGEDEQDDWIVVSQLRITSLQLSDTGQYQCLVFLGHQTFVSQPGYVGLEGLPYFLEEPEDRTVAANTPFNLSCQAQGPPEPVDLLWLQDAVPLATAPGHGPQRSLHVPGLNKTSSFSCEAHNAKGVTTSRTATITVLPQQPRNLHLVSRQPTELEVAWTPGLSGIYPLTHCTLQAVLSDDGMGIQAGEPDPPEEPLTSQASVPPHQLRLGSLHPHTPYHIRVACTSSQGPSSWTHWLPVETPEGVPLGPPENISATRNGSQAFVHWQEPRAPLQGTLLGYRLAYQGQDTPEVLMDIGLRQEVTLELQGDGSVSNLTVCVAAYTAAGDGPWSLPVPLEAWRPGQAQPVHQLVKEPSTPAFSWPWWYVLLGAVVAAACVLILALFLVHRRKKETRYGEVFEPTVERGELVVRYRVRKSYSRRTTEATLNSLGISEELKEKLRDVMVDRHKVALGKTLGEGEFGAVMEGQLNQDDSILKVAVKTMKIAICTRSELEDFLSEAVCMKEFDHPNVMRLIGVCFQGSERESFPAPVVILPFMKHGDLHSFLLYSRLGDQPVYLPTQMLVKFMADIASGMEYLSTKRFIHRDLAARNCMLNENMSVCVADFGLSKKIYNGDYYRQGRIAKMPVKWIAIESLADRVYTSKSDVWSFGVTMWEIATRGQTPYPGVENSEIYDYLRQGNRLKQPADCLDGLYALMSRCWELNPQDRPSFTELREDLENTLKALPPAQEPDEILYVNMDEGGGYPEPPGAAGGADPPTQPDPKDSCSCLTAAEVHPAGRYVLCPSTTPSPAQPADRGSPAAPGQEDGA
Procedure: as §1, §2, §3, §4

[4] = target: BRK (Homo sapiens, UniProt Q13882)
Sequence of BRK (Q13882 whole entry): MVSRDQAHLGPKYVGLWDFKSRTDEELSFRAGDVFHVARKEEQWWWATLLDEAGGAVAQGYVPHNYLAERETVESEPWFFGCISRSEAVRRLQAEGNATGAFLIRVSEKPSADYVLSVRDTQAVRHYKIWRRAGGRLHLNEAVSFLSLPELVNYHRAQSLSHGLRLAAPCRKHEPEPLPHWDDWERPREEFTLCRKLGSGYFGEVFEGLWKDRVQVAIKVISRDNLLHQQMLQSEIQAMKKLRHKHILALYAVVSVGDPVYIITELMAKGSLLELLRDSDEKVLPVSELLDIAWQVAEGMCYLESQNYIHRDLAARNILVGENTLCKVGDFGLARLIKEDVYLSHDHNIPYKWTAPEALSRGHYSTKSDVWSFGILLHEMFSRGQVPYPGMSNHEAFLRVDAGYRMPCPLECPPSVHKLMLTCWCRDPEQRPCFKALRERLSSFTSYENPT
Procedure: as §1, §2, §3, §4

Sequence of FYN A (P06241 whole entry): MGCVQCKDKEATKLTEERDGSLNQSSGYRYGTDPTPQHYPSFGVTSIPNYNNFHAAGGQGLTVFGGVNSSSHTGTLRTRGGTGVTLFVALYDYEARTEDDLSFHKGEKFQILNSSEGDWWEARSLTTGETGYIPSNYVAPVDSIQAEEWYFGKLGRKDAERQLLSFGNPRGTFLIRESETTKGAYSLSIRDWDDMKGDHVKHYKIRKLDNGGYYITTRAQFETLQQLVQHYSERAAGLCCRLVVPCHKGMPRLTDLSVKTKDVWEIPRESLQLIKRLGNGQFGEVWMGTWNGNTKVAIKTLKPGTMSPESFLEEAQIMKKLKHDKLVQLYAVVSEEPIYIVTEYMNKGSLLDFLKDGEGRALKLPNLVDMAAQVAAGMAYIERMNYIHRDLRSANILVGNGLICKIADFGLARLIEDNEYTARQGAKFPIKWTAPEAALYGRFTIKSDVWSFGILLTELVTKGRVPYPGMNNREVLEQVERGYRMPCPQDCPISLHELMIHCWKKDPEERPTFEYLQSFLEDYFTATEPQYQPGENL
Sequence of SRC (P12931 whole entry): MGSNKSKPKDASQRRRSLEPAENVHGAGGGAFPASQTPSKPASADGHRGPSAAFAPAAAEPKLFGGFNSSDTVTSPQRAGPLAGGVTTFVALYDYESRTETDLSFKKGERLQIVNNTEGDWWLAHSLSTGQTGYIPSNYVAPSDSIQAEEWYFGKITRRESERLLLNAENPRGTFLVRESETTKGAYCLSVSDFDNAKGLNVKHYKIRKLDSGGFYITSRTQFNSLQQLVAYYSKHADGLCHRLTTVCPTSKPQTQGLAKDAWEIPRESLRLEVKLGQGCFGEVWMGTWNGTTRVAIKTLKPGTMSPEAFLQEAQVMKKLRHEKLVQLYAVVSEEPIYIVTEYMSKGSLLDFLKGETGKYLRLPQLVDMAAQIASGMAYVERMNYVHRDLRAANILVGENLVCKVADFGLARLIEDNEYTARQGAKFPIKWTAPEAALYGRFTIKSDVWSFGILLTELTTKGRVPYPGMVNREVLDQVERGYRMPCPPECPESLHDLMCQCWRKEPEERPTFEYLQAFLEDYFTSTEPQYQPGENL

Question: For `COc1cc2c(Oc3ccc4[nH]c(C)cc4c3F)ncnc2cc1OCCCN1CCCC1` [Cediranib], which IC50 [1] is on record?
Answer: 724 nM

Question: And the IC50 [2]?
Answer: 135 nM

Question: And the IC50 [3]?
Answer: 3090 nM

Question: What about the IC50 [4] of the same compound?
Answer: 166 nM
